ChEMBL document CHEMBL5620355, “Discovery of intracellular self-assembly protein degraders driven by tumor-specific activatable bioorthogonal reaction” (Eur J Med Chem, 2023)
Activity calls are given as the source filed them. No cut-off for these calls is given here.

What was measured:
[1] = molecular target: Vascular endothelial growth factor receptor 2 (Homo sapiens) (UniProt P35968); test: Induction of VEGFR2 degradation in human U87 cells at 10 uM incubated for 48 hrs by Western blot analysis; format: cell-based
Chain of Vascular endothelial growth factor receptor 2 (Homo sapiens) (P35968 whole entry): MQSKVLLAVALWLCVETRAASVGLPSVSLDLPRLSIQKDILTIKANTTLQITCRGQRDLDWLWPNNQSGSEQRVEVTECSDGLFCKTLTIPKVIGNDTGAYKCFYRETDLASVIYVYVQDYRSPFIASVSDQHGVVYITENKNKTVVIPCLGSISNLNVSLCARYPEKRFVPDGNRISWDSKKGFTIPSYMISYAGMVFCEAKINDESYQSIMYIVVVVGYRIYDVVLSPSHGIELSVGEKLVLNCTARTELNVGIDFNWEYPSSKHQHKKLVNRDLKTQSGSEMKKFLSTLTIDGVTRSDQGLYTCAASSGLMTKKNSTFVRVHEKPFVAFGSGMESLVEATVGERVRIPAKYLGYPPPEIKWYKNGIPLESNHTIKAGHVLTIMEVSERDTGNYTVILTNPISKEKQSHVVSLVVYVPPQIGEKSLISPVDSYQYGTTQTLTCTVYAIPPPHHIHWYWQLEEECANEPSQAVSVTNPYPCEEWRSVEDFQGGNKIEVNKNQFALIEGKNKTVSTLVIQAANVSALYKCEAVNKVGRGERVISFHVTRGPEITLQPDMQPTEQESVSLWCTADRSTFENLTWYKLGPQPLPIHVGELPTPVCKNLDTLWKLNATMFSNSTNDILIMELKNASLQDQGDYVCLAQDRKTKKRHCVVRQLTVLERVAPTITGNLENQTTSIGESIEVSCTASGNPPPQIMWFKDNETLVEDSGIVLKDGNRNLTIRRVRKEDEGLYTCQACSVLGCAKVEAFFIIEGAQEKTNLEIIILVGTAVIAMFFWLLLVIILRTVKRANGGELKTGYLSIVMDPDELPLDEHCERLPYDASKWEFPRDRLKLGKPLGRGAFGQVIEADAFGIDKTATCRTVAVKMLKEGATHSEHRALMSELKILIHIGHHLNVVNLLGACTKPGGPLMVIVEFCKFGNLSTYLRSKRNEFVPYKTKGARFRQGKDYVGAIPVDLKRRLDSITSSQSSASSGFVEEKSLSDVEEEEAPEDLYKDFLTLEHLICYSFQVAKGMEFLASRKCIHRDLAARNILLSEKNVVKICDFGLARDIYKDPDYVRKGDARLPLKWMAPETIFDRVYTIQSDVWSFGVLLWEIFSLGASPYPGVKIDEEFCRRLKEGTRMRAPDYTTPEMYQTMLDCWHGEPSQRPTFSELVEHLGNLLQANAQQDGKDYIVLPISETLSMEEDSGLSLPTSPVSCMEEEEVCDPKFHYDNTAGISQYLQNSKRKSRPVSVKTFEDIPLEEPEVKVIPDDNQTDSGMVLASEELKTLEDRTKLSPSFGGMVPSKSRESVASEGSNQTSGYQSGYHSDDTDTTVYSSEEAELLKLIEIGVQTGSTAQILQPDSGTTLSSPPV

U-87 MG [2] = test: Induction of apoptosis in human U87 cells assessed as viable cells at 1 uM incubated for 48 hrs in presence of 4-(4-(3-(4-chloro-3-(trifluoromethyl)phenyl)ureido)phenoxy)-N-(prop-2-yn-1-yl)picolinamide by Annexin V-FLTC/PI staining based flow cytometry (reference value: 86.74 %); format: functional, U-87MG ATCC; conditions: read-out: Activity
U-87 MG [3] = test: Induction of apoptosis in human U87 cells assessed as late apoptotic cells at 5 uM incubated for 48 hrs in presence of 4-(4-(3-(4-chloro-3-(trifluoromethyl)phenyl)ureido)phenoxy)-N-(prop-2-yn-1-yl)picolinamide by Annexin V-FLTC/PI staining based flow cytometry (reference value: 3.71 %); format: functional, U-87MG ATCC
U-87 MG [4] = test: Induction of apoptosis in human U87 cells assessed as early apoptotic cells at 1 uM incubated for 48 hrs in presence of 4-(4-(3-(4-chloro-3-(trifluoromethyl)phenyl)ureido)phenoxy)-N-(prop-2-yn-1-yl)picolinamide by Annexin V-FLTC/PI staining based flow cytometry (reference value: 8.95 %); format: functional, U-87MG ATCC
U-87 MG [5] = test: Induction of apoptosis in human U87 cells assessed as necrotic cells at 5 uM incubated for 48 hrs in presence of 4-(4-(3-(4-chloro-3-(trifluoromethyl)phenyl)ureido)phenoxy)-N-(prop-2-yn-1-yl)picolinamide by Annexin V-FLTC/PI staining based flow cytometry (reference value: 0.60 %); format: functional, U-87MG ATCC
U-87 MG [6] = test: Induction of apoptosis in human U87 cells assessed as viable cells at 5 uM incubated for 48 hrs in presence of 4-(4-(3-(4-chloro-3-(trifluoromethyl)phenyl)ureido)phenoxy)-N-(prop-2-yn-1-yl)picolinamide by Annexin V-FLTC/PI staining based flow cytometry (reference value: 86.74 %); format: functional, U-87MG ATCC; conditions: read-out: Activity
U-87 MG [7] = test: Induction of apoptosis in human U87 cells assessed as early apoptotic cells at 5 uM incubated for 48 hrs in presence of 4-(4-(3-(4-chloro-3-(trifluoromethyl)phenyl)ureido)phenoxy)-N-(prop-2-yn-1-yl)picolinamide by Annexin V-FLTC/PI staining based flow cytometry (reference value: 8.95 %); format: functional, U-87MG ATCC
U-87 MG [8] = test: Induction of apoptosis in human U87 cells assessed as necrotic cells at 0.1 uM incubated for 48 hrs in presence of (2S,4R)-1-((S)-2-(5-azidopentanamido)-3,3-dimethylbutanoyl)-4-hydroxy-N-(4-(4-methylthiazol-5-yl)benzyl)pyrrolidine-2-carboxamide by Annexin V-FLTC/PI staining based flow cytometry (reference value: 0.60 %); format: functional, U-87MG ATCC
U-87 MG [9] = test: Induction of apoptosis in human U87 cells assessed as late apoptotic cells at 20 uM incubated for 48 hrs in presence of (2S,4R)-1-((S)-2-(5-azidopentanamido)-3,3-dimethylbutanoyl)-4-hydroxy-N-(4-(4-methylthiazol-5-yl)benzyl)pyrrolidine-2-carboxamide by Annexin V-FLTC/PI staining based flow cytometry (reference value: 3.71 %); format: functional, U-87MG ATCC
U-87 MG [10] = test: (§1) Induction of apoptosis in human U87 cells assessed as viable cells at 5 uM incubated for 48 hrs in presence of (2S,4R)-1-((S)-2-(5-azidopentanamido)-3,3-dimethylbutanoyl)-4-hydroxy-N-(4-(4-methylthiazol-5-yl)benzyl)pyrrolidine-2-carboxamide by Annexin V-FLTC/PI staining based flow cytometry (reference value: 86.74 %); format: functional, U-87MG ATCC; conditions: read-out: Activity
U-87 MG [11] = test: (§2) Induction of apoptosis in human U87 cells assessed as early apoptotic cells at 5 uM incubated for 48 hrs in presence of (2S,4R)-1-((S)-2-(5-azidopentanamido)-3,3-dimethylbutanoyl)-4-hydroxy-N-(4-(4-methylthiazol-5-yl)benzyl)pyrrolidine-2-carboxamide by Annexin V-FLTC/PI staining based flow cytometry (reference value: 8.95 %); format: functional, U-87MG ATCC
[12] = molecular target: T1, Ephrin type-B receptor 4 (Homo sapiens) (UniProt P54760); test: Induction of EphB4 degradation in human U87 cells upto 10 uM incubated for 48 hrs by Western blot analysis; format: cell-based
T1 sequence (whole entry): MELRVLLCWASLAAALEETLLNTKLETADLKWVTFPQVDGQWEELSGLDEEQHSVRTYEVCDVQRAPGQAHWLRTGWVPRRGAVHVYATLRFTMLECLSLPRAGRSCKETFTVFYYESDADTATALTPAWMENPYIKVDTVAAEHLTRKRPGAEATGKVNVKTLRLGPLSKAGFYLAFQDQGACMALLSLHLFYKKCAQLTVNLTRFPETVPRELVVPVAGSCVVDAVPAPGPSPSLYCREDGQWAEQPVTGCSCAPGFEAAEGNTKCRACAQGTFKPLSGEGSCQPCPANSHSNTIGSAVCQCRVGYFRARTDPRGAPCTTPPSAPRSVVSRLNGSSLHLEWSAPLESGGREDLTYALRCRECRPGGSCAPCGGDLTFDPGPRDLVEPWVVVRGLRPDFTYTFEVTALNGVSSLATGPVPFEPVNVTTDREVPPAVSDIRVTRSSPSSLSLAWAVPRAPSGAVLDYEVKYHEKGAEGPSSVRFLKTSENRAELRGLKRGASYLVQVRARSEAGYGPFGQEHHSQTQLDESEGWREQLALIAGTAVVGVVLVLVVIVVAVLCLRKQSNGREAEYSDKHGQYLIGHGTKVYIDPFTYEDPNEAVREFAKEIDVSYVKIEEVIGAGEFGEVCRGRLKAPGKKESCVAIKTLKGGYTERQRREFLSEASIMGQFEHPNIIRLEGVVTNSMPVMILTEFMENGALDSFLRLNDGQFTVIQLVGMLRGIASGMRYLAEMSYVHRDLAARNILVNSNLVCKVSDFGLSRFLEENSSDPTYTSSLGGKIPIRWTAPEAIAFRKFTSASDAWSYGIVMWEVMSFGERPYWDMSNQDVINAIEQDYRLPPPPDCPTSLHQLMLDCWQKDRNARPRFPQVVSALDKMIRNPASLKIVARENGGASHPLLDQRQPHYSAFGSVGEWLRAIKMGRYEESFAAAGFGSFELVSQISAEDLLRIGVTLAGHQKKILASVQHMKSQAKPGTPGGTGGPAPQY

A549 = test: Antiproliferative activity against human A549 cells incubated for 48 hrs in presence of (2S,4R)-1-((S)-2-(5-azidopentanamido)-3,3-dimethylbutanoyl)-4-hydroxy-N-(4-(4-methylthiazol-5-yl)benzyl)pyrrolidine-2-carboxamide by MTT assay; format: functional, cell-based; conditions: A549, 48 h
[13] = molecular target: Vascular endothelial growth factor receptor 2 (Homo sapiens) (UniProt P35968); test: Induction of VEGFR2 degradation in human U87 cells upto 10 uM incubated for 48 hrs by Western blot analysis; format: cell-based
HEK293 = test: Cytotoxicity against HEK293 cells at low concentration incubated for 48 hrs in presence of (2S,4R)-1-((S)-2-(5-azidopentanamido)-3,3-dimethylbutanoyl)-4-hydroxy-N-(4-(4-methylthiazol-5-yl)benzyl)pyrrolidine-2-carboxamide by MTT assay; format: toxicity, cell-based; conditions: human, hek293, 48 h
U-87 MG [14] = test: as §1, with “at 10” for “at 5”; format: functional, U-87MG ATCC; conditions: read-out: Activity
U-87 MG [15] = test: Induction of apoptosis in human U87 cells assessed as necrotic cells at 5 uM incubated for 48 hrs in presence of (2S,4R)-1-((S)-2-(5-azidopentanamido)-3,3-dimethylbutanoyl)-4-hydroxy-N-(4-(4-methylthiazol-5-yl)benzyl)pyrrolidine-2-carboxamide by Annexin V-FLTC/PI staining based flow cytometry (reference value: 0.60 %); format: functional, U-87MG ATCC
U-87 MG [16] = test: as §2, with “at 0.1” for “at 5”; format: functional, U-87MG ATCC
U-87 MG [17] = test: Induction of apoptosis in human U87 cells assessed as late apoptotic cells at 5 uM incubated for 48 hrs in presence of (2S,4R)-1-((S)-2-(5-azidopentanamido)-3,3-dimethylbutanoyl)-4-hydroxy-N-(4-(4-methylthiazol-5-yl)benzyl)pyrrolidine-2-carboxamide by Annexin V-FLTC/PI staining based flow cytometry (reference value: 3.71 %); format: functional, U-87MG ATCC

Activity [1] | Activity [12] | IC50 (A549) [µM] | Activity [13] | Compound | viability at 1 µM (U-87 MG [2]) [%] | Activity (U-87 MG [3]) [%] | Activity (U-87 MG [4]) [%] | Activity (U-87 MG [5]) [%] | viability at 5 µM (U-87 MG [6]) [%] | Activity (U-87 MG [7]) [%] | Activity (U-87 MG [8]) [%] | Activity (U-87 MG [9]) [%] | viability at 5 µM (U-87 MG [10]) [%] | Activity (U-87 MG [11]) [%] | Activity (HEK293) | viability at 10 µM (U-87 MG [14]) [%] | Activity (U-87 MG [15]) [%] | Activity (U-87 MG [16]) [%] | Activity (U-87 MG [17]) [%]
Active | – | – | – | [N-]=[N+]=NCCCC(=O)Nc1cccc2c1C(=O)N(C1CCC(=O)NC1=O)C2=O (centres undefined) | 81.6 | 73.25 | 11.69 | 25.22 | 1.48 | 0.05 | – | – | – | – | – | – | – | – | –
– | inactive | 1.06 | inactive | C#CCNC(=O)c1cc(Oc2ccc(NC(=O)Nc3ccc(Cl)c(C(F)(F)F)c3)cc2)ccn1 | – | – | – | – | – | – | 1.02 | 79.04 | 1.48 | 0.05 | Non-Toxic | 1.74 | 25.22 | 10.27 | 73.25
